Experimental data taken from patent US20080009418A1, “Selective Inhibitors” (Alchemia LTD., priority 2004, published 2008).

Key:
Human δ-opioid (DOP) = biological target: T1, Human δ-opioid (DOP) (Homo sapiens, UniProt P41143); test: Radioligand binding, human δ-opioid (DOP) membranes, FlashPlate, [3H]-Bremazocine; conditions: compound at 10 μM; human δ-opioid (DOP) membranes
T1 construct: purchased Perkin Elmer Biosignal
Summary of the method: (§1)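 Cloned human receptor membranes were coated onto FlashPlate wells and incubated with radioligand and compound (added from a 0.5 mM DMSO daughter plate) for 1 hour at room temperature in the dark. Scintillation counting gave percent inhibition, with DMSO defining total and reference ligand defining non-specific binding.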

Human κ-Opioid (KOP) = biological target: T2, Human κ-Opioid (KOP) (Homo sapiens, UniProt P41145); test: Radioligand binding, human κ-opioid (KOP) membranes, filtration, [3H]-Diprenorphine; conditions: compound at 10 μM; human κ-opioid (KOP) membranes
T2 construct: purchased Perkin Elmer Biosignal
Summary of the method: (§2)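 Percent inhibition of radioligand binding measured on recombinant human membranes: NK1 with [125I]-Substance P, KOP with [3H]-Diprenorphine. Incubation 1 h at room temperature, then harvest onto 0.3% PEI-soaked filters, cold Tris-HCl pH 7.4 washes and scintillation counting; non-specific binding from reference ligand wells.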

Human Melanocortin (MC3) = biological target: T3, Human Melanocortin (MC3) (Homo sapiens, UniProt P41968); test: Radioligand binding, human melanocortin MC3 membranes, FlashPlate, [125I]-NDP-αMSH; conditions: compound at 10 μM; human melanocortin MC3 membranes
T3 construct: purchased Perkin Elmer Biosignal
Summary of the method: as §1

Human Melanocortin (MC4) = biological target: T4, Human Melanocortin (MC4) (Homo sapiens, UniProt P32245); test: Radioligand binding, human melanocortin MC4 membranes, FlashPlate, [125I]-NDP-αMSH; conditions: compound at 10 μM; human melanocortin MC4 membranes
T4 construct: purchased Perkin Elmer Biosignal
Summary of the method: as §1

Human melanocortin (MC5) = biological target: T5, Human melanocortin (MC5) (Homo sapiens, UniProt P33032); test: Radioligand binding, human melanocortin MC5 membranes, FlashPlate, [125I]-NDP-αMSH; conditions: compound at 10 μM; human melanocortin MC5 membranes
T5 construct: purchased Perkin Elmer Biosignal
Summary of the method: as §1

[1] = biological target: T6, Human melanin-concentrating hormone (MCH1) (Homo sapiens, UniProt Q99705); test: Radioligand binding, human melanin-concentrating hormone MCH1 membranes, FlashPlate, [125I]-S36057; conditions: compound at 10 μM; human MCH1 membranes
T6 construct: purchased Perkin Elmer Biosignal
Summary of the method: as §1

Human μ-opioid (MOP) = biological target: T7, Human μ-opioid (MOP) (Homo sapiens, UniProt P35372); test: Radioligand binding, human μ-opioid (MOP) membranes, FlashPlate, [3H]-Naloxone; conditions: compound at 10 μM; human μ-opioid (MOP) membranes
T7 construct: purchased Perkin Elmer Biosignal
Summary of the method: as §1

Human neurokinin (NK1) = biological target: T8, Human neurokinin (NK1) (Homo sapiens, UniProt P25103); test: Radioligand binding, human neurokinin NK1 membranes, filtration, [125I]-Substance P; conditions: compound at 10 μM; human neurokinin NK1 membranes
T8 construct: purchased Perkin Elmer Biosignal
Summary of the method: as §2

[2] = biological target: T9, Human neuropeptide Y (NPY-Y1) (Homo sapiens, UniProt P25929); test: Radioligand binding, human neuropeptide Y NPY-Y1 membranes, FlashPlate, [125I]-PYY; conditions: compound at 10 μM; human NPY-Y1 membranes
T9 construct: purchased Perkin Elmer Biosignal
T9 sequence (P25929 1-384): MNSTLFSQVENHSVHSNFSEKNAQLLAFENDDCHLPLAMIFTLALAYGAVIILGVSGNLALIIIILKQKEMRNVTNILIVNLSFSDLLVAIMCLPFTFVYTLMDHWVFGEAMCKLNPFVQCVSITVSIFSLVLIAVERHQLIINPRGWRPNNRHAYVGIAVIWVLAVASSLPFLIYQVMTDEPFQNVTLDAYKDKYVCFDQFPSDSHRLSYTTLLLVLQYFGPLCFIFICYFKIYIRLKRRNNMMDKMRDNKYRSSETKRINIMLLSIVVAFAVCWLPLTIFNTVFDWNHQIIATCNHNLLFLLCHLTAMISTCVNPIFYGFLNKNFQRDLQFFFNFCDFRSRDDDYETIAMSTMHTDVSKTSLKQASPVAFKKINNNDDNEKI
Summary of the method: as §1

Human opioid (ORL1) = biological target: T10, Human opioid (ORL1) (Homo sapiens, UniProt P41146); test: Radioligand binding, human opioid ORL1 membranes, FlashPlate, [125I]-Nociceptin; conditions: compound at 10 μM; human ORL1 membranes
T10 construct: purchased Perkin Elmer Biosignal
Summary of the method: as §1

Mouse urotensin (mUR2) = biological target: T11, Mouse urotensin (mUR2) (Mus musculus, UniProt Q8VIH9); test: Radioligand binding, mouse urotensin mUR2 membranes, FlashPlate, [125I]-Urotensin II; conditions: compound at 10 μM; mouse urotensin mUR2 membranes
T11 construct: purchased Perkin Elmer Biosignal
T11 sequence (Q8VIH9 1-385): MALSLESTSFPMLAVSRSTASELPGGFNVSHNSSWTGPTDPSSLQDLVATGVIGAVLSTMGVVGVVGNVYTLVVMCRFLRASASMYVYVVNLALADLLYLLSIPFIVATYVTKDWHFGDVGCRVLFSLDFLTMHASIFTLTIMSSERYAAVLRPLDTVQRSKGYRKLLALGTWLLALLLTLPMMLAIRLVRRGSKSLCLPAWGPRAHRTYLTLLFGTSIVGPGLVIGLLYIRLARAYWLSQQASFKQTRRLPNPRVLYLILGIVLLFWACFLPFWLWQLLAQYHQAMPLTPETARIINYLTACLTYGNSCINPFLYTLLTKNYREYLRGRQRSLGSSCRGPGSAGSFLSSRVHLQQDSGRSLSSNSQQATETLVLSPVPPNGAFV
Summary of the method: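 Cloned mouse urotensin (mUR2) receptor membranes from Perkin Elmer Biosignal were immobilized in FlashPlate microplates using a proprietary coating. Each well got 19.5 μl buffer, then 0.5 μl of DMSO, reference ligand, or compound. Adding 5 μl of [125I]-Urotensin II, diluted to 5× final concentration in binding buffer, started binding. Plates were sealed with TopSeal-A and incubated 1 hour at room temperature in the dark. Wells were counted for 30 seconds each on a TopCount after a 60-second delay, and percentage inhibition was calculated.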

T6 sequence (Q99705 whole entry): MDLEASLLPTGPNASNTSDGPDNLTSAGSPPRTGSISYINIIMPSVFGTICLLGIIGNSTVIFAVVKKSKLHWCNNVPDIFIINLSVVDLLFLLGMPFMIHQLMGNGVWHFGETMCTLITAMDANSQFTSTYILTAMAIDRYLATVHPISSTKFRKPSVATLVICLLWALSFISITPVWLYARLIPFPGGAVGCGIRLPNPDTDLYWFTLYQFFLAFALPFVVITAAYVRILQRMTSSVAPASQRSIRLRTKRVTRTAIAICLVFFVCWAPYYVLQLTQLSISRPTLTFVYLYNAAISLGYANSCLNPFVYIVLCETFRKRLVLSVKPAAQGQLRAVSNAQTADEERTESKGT
T4 sequence (P32245 whole entry): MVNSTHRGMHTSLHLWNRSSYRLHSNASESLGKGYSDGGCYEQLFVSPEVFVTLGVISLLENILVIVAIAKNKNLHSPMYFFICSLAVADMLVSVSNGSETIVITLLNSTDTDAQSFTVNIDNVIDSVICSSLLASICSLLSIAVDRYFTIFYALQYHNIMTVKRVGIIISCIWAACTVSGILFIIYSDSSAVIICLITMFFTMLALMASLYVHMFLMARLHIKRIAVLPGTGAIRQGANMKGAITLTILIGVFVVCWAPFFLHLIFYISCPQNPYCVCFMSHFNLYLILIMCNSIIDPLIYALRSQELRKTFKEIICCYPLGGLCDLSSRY
T2 sequence (P41145 whole entry): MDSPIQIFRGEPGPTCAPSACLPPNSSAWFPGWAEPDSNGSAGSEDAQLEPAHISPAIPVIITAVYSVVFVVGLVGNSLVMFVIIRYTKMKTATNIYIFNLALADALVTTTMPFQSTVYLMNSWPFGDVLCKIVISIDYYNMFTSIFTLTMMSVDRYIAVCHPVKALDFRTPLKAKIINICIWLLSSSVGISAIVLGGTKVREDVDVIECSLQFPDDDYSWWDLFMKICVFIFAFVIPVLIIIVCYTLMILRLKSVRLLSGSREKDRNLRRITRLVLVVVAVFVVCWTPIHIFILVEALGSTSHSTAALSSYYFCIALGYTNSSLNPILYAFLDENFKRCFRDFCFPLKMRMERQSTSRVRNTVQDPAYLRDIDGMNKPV
T3 sequence (P41968 whole entry): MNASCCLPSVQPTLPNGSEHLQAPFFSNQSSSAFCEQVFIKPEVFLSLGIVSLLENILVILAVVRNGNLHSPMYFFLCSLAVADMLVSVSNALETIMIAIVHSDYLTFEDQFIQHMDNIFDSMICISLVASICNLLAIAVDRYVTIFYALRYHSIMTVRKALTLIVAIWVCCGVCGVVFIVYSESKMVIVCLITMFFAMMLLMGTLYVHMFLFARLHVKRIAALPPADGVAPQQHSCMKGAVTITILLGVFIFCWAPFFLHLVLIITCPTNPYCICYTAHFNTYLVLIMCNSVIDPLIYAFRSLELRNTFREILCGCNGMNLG
T7 sequence (P35372 whole entry): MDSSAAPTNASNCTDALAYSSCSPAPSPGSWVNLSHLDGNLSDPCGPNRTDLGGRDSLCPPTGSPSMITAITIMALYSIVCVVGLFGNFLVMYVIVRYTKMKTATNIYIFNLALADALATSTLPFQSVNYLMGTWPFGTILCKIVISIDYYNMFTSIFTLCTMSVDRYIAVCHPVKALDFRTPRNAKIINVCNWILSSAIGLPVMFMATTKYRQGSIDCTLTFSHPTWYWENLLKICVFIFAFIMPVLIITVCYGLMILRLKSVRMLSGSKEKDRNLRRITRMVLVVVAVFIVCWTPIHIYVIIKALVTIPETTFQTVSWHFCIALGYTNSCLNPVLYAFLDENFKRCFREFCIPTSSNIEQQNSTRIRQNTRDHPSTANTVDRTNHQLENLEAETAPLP
T1 sequence (P41143 whole entry): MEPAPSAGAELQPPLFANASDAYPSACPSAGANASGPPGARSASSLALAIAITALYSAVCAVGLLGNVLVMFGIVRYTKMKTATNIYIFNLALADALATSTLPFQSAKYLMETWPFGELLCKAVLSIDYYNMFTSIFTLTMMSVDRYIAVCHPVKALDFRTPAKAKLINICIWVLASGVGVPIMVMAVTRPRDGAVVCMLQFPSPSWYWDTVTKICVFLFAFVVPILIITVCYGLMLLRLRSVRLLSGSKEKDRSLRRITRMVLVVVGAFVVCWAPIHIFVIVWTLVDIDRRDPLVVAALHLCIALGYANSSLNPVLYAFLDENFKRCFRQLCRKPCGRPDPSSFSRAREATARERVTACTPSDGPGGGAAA
T5 sequence (P33032 whole entry): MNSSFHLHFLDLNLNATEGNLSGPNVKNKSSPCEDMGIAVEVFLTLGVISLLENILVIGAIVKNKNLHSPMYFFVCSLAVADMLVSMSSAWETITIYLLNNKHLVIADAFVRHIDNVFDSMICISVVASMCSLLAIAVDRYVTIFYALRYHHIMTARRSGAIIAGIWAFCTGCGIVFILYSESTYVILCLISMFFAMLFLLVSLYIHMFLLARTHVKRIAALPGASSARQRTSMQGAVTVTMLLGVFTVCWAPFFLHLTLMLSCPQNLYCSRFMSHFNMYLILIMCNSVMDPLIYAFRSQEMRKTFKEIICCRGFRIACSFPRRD
T10 sequence (P41146 whole entry): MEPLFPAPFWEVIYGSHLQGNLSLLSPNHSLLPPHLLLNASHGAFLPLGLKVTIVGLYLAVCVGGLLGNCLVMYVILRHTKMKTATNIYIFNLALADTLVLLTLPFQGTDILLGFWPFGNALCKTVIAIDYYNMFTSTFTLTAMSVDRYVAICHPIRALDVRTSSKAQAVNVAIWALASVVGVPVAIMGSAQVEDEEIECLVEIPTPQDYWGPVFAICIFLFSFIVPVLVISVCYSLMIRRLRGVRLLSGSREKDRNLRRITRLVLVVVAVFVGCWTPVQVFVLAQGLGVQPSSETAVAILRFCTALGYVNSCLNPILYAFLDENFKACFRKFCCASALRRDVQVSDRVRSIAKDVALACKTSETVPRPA
T8 sequence (P25103 whole entry): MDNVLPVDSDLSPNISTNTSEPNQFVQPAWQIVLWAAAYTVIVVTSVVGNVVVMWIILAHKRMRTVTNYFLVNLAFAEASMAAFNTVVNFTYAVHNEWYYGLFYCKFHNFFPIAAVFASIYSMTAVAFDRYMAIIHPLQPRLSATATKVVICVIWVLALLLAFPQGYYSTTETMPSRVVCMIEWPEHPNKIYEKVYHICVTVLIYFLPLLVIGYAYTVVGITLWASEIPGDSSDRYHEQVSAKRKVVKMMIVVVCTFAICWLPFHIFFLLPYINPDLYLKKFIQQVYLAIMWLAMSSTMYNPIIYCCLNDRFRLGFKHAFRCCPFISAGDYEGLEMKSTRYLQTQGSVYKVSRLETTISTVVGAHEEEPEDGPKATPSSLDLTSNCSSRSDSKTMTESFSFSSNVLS

Compound | A1 radioligand binding inhibition (Human δ-opioid (DOP)) | A2 radioligand binding inhibition (Human κ-Opioid (KOP)) | A3 radioligand binding inhibition (Human Melanocortin (MC3)) | A4 radioligand binding inhibition (Human Melanocortin (MC4)) | A5 radioligand binding inhibition (Human melanocortin (MC5)) | A6 radioligand binding inhibition [1] | A7 radioligand binding inhibition (Human μ-opioid (MOP)) | A8 radioligand binding inhibition (Human neurokinin (NK1)) | A9 radioligand binding inhibition [2] | A10 radioligand binding inhibition (Human opioid (ORL1)) | A11 radioligand binding inhibition (Mouse urotensin (mUR2))
CO[C@H]1[C@H](O)[C@@H](COCc2ccc3ccccc3c2)OC(OCc2ccc(-c3ccccc3)cc2)[C@@H]1NC(=O)CCCNC(=N)N (stereo partly drawn) [compound 57] | − (“−” indicates less than 50% inhibition at 10 μM) | + (“+” indicates greater than 50% inhibition at 10 μM) | + (“+” indicates greater than 50% inhibition at 10 μM) | + (“+” indicates greater than 50% inhibition at 10 μM) | + (“+” indicates greater than 50% inhibition at 10 μM) | − (“−” indicates less than 50% inhibition at 10 μM) | + (“+” indicates greater than 50% inhibition at 10 μM) | + (“+” indicates greater than 50% inhibition at 10 μM) | − (“−” indicates less than 50% inhibition at 10 μM) | + (“+” indicates greater than 50% inhibition at 10 μM) | − (“−” indicates less than 50% inhibition at 10 μM)
CO[C@H]1[C@H](O)[C@@H](COCc2ccccc2)OC(OCc2ccc(-c3ccccc3)cc2)[C@@H]1NC(=O)CNC(=N)N (stereo partly drawn) [compound 58] | − (“−” indicates less than 50% inhibition at 10 μM) | + (“+” indicates greater than 50% inhibition at 10 μM) | − (“−” indicates less than 50% inhibition at 10 μM) | + (“+” indicates greater than 50% inhibition at 10 μM) | + (“+” indicates greater than 50% inhibition at 10 μM) | − (“−” indicates less than 50% inhibition at 10 μM) | + (“+” indicates greater than 50% inhibition at 10 μM) | + (“+” indicates greater than 50% inhibition at 10 μM) | − (“−” indicates less than 50% inhibition at 10 μM) | − (“−” indicates less than 50% inhibition at 10 μM) | − (“−” indicates less than 50% inhibition at 10 μM)
CO[C@H]1[C@H](O)[C@@H](COCc2ccccc2)OC(OCc2ccc(-c3ccccc3)cc2)[C@@H]1NC(=O)CCNC(=N)N (stereo partly drawn) [compound 59] | − (“−” indicates less than 50% inhibition at 10 μM) | + (“+” indicates greater than 50% inhibition at 10 μM) | − (“−” indicates less than 50% inhibition at 10 μM) | − (“−” indicates less than 50% inhibition at 10 μM) | + (“+” indicates greater than 50% inhibition at 10 μM) | − (“−” indicates less than 50% inhibition at 10 μM) | + (“+” indicates greater than 50% inhibition at 10 μM) | + (“+” indicates greater than 50% inhibition at 10 μM) | − (“−” indicates less than 50% inhibition at 10 μM) | − (“−” indicates less than 50% inhibition at 10 μM) | − (“−” indicates less than 50% inhibition at 10 μM)
CO[C@H]1[C@H](O)[C@@H](COCc2ccccc2)OC(OCc2ccc(-c3ccccc3)cc2)[C@@H]1NC(=O)CCCN (stereo partly drawn) [compound 60] | − (“−” indicates less than 50% inhibition at 10 μM) | − (“−” indicates less than 50% inhibition at 10 μM) | − (“−” indicates less than 50% inhibition at 10 μM) | − (“−” indicates less than 50% inhibition at 10 μM) | + (“+” indicates greater than 50% inhibition at 10 μM) | − (“−” indicates less than 50% inhibition at 10 μM) | − (“−” indicates less than 50% inhibition at 10 μM) | − (“−” indicates less than 50% inhibition at 10 μM) | − (“−” indicates less than 50% inhibition at 10 μM) | − (“−” indicates less than 50% inhibition at 10 μM) | − (“−” indicates less than 50% inhibition at 10 μM)
CO[C@H]1[C@H](O)[C@@H](COCc2ccccc2)OC(OCc2ccc(-c3ccccc3)cc2)[C@@H]1NC(=O)CCCNC(=N)N (stereo partly drawn) [compound 61] | − (“−” indicates less than 50% inhibition at 10 μM) | + (“+” indicates greater than 50% inhibition at 10 μM) | − (“−” indicates less than 50% inhibition at 10 μM) | − (“−” indicates less than 50% inhibition at 10 μM) | + (“+” indicates greater than 50% inhibition at 10 μM) | − (“−” indicates less than 50% inhibition at 10 μM) | + (“+” indicates greater than 50% inhibition at 10 μM) | + (“+” indicates greater than 50% inhibition at 10 μM) | − (“−” indicates less than 50% inhibition at 10 μM) | − (“−” indicates less than 50% inhibition at 10 μM) | − (“−” indicates less than 50% inhibition at 10 μM)
CO[C@H]1[C@H](O)[C@@H](COCc2ccc(Cl)cc2)OC(OCc2ccc(-c3ccccc3)cc2)[C@@H]1NC(=O)CNC(=N)N (stereo partly drawn) [compound 62] | − (“−” indicates less than 50% inhibition at 10 μM) | − (“−” indicates less than 50% inhibition at 10 μM) | + (“+” indicates greater than 50% inhibition at 10 μM) | + (“+” indicates greater than 50% inhibition at 10 μM) | + (“+” indicates greater than 50% inhibition at 10 μM) | + (“+” indicates greater than 50% inhibition at 10 μM) | − (“−” indicates less than 50% inhibition at 10 μM) | + (“+” indicates greater than 50% inhibition at 10 μM) | − (“−” indicates less than 50% inhibition at 10 μM) | + (“+” indicates greater than 50% inhibition at 10 μM) | − (“−” indicates less than 50% inhibition at 10 μM)
